Data as given in ChEMBL document CHEMBL3832047, “DailyMed|setid=077bf6ff-afb8-4cb7-9faa-fbb6fd9f037f | YAZ - drospirenone and ethinyl estradiol|Physicians Total Care, Inc”.

Tests used:
Homo sapiens = test: (§1) Evaluation pharmacokinetic parameters for Drosporine following multiple co-administration of Drosporine tablets and 0.02 mg ethinyl estradiol to 23 healthy females.; format: ADME, organism-based; design: dose 3 mg, route oral; conditions: in vivo, po, dosed compound id 30, dosed compound name DROSPIRENONE, gender female, regimen every 24h, study dosing duration 21 days, tissue Serum
[1] = as §1; format: ADME, organism-based; design: dose 3 mg, route oral; conditions: human, in vivo, dosed compound id 30, dosed compound name DROSPIRENONE, gender female, regimen every 24h, study dosing duration 21 days, tissue Serum

AUC(0-24) (Homo sapiens; sampling time1 1 day): 268 ng·h/mL
AUC(0-24) (Homo sapiens; sampling time1 21 day): 763 ng·h/mL
Cmax (Homo sapiens; sampling time1 21 day): 70.3 ng/mL
Cmax ([1]; po, sampling time1 1 day): 38.4 ng/mL
Tmax ([1]; dose 3 mg, route oral, sampling time1 1 day): 1 to 2 h
half-life ([1]; dose 3 mg, route oral, sampling time1 21 day): 30.8 h
SMILES: C[C@]12CCC(=O)C=C1[C@@H]1C[C@@H]1[C@H]1[C@@H]3[C@@H]4C[C@@H]4[C@@]4(CCC(=O)O4)[C@@]3(C)CC[C@@H]12 [DROSPIRENONE]
